Measured values from ChEMBL document CHEMBL4483862, “Open-source discovery of chemical leads for next-generation chemoprotective antimalarials” (2018).

Test system: Plasmodium berghei
Assay: Luciferase/luciferin-expressing antifolate-resistant parasites were used to infect a culture of HepG2 cells that were pre-incubated with compounds. Infected hepatocytes emit light due to the luciferase reaction. Assay results are presented as the percent inhibition of light emission compared to control. […]
Type: functional
Conditions: sporozoite; for IC50: read-out: LUCIFERASE INFECTION ASSAY - IC50; for IC90: read-out: LUCIFERASE INFECTION ASSAY - IC90

| Compound | IC50 [µM] | IC90 [µM] |
| --- | --- | --- |
| Cc1cccc2sc(NC(=O)c3cccc(S(=O)(=O)N4CCc5ccccc54)c3)nc12 | > 10 | > 10 |
| CCc1cc2c(=O)n(Cc3ccco3)c(SCC(=O)N(C)C3CCS(=O)(=O)C3)nc2s1 (centres undefined) | > 10 | > 10 |
| COc1cc2nc(SCc3c(C)noc3C)n(CCC3=CCCCC3)c(=O)c2cc1OC | > 10 | > 10 |
| CCc1cccc(CC)c1N=C(S)NC(C)c1ccccc1 (centres undefined) | > 10 | > 10 |
| COc1cc2c(cc1OC)C1(NCC2)C(=O)Nc2ccccc21 (centres undefined) | > 10 | > 10 |
| Cc1cccc(NC(=O)CN(C)C(=O)/C=C/c2ccccc2)c1C | > 10 | > 10 |
| CCOC(=O)/C=c1\s/c(=C\c2ccc(Cl)cc2)c(=O)n1CC(=O)c1ccc(Cl)cc1 | > 10 | > 10 |
| CCCN(C(=O)c1ccccc1CCc1ccccc1)c1nc(-c2ccc(Cl)cc2Cl)cs1 | > 10 | > 10 |
| CCCn1c(N)c(C(=O)CSc2nc3sc(C)c(C)c3c(=O)n2-c2ccccc2)c(=O)[nH]c1=O | > 10 | > 10 |
| CC(C)N(CC(=O)Nc1ccc(Cl)cc1C(F)(F)F)C(=O)CNC(c1ccccc1)c1ccccc1 | > 10 | > 10 |
| CCCn1c(=O)n(C)c(=O)c2c(SCc3cccc([N+](=O)[O-])c3)nc(CC(C)C)nc21 | > 10 | > 10 |
| Cc1nnc(SCC(=O)Nc2ccc(Cl)cn2)n(N)c1=O | > 10 | > 10 |
| COc1cc2c(cc1NC(=O)C(C)NCC(c1ccccc1)N(C)C)oc1ccccc12 (centres undefined) | > 10 | > 10 |
| COc1cc(OC)cc(C(=O)N(Cc2ccccc2)c2nc(-c3ccc(Cl)cc3Cl)cs2)c1 | > 10 | > 10 |
| CCCCN(C(=O)CCC(=O)OCC(=O)NC(=O)NCC)c1c(N)n(CCC)c(=O)[nH]c1=O | > 10 | > 10 |
| CCc1sc2nc(SCc3cc(=O)n4cc(Br)ccc4n3)n(-c3cccc(OC)c3)c(=O)c2c1C | > 10 | > 10 |

| Compound | IC50 [µM] | IC90 [µM] |
| --- | --- | --- |
| CCCn1c(=O)n(C)c(=O)c2c(SCc3cc(=O)oc4cc(CC)ccc34)nc(C(C)(C)C)nc21 | > 10 | > 10 |
| Cc1c(C(=O)OCC(=O)N(Cc2ccccc2)Cc2ccccc2)sc2nc3n(c(=O)c12)CCC3 | 3.04 | 3.43 |
| Nn1c(Cc2ccccc2F)nnc1SCC(=O)NCc1ccc2c(c1)OCO2 | > 10 | > 10 |
| CSc1ccccc1NC(=O)CN(C)c1nc(CSc2ccccc2)nc2sc3c(c12)CCC3 | > 10 | > 10 |
| O=C(CN1CCN(C/C=C/c2ccccc2)CC1)NC(c1ccccc1)c1ccccc1 | > 10 | > 10 |
| COc1ccc2c(Cn3ncc(Cl)c(Cl)c3=O)cc(=O)oc2c1 | 4.21 | 7.19 |
| COc1ccccc1N(Cc1cc2ccc(C)cc2[nH]c1=O)S(=O)(=O)c1ccccc1 | > 10 | > 10 |
| Cc1cc(C)c(C(=O)OCCC(NS(=O)(=O)c2ccc(Cl)cc2)c2ccccc2)c(C)c1 (centres undefined) | > 10 | > 10 |
| CC(=O)Nc1ccc(C(=S)NCCCN2CCCC2=O)cc1 | > 10 | > 10 |
| CC1CCc2nc3ccccc3c(C(=O)OCCOc3ccccc3Cl)c2C1 (centres undefined) | > 10 | > 10 |
| N#Cc1ccc(COC(=O)c2ccc(O)cc2)cc1 | > 10 | > 10 |
| O=C(CN(Cc1ccccc1Cl)S(=O)(=O)/C=C/c1ccccc1)Nc1ccc(F)cc1Cl | > 10 | > 10 |
| O=C(CCN1C(=O)c2ccccc2C1=O)OCc1cc(=O)oc2cc(O)ccc12 | > 10 | > 10 |
| CCOC(=O)c1c(C)[nH]c(/C=C2/C(=O)N(c3ccccc3)N=C2C)c1Cc1cccc(Cl)c1 | > 10 | > 10 |
| CCCCC1(c2ccccc2)NC(=O)N(CC(=O)Nc2ccc(C#N)c(Cl)c2)C1=O (centres undefined) | > 10 | > 10 |
| CCCn1c(CCC(=O)OCC(=O)c2ccc(NC(=O)CC(C)C)cc2)nc2cc(S(=O)(=O)N3CCCC3)ccc21 | > 10 | > 10 |
